Data published in publication PMC8536575, “Acute effects of the imidacloprid metabolite desnitro-imidacloprid on human nACh receptors relevant for neuronal signaling” (Archives of Toxicology, 2021).

What was measured:
[1] = tested on: nAChRs on LUHMES neurons; design: method as in Loser et al. [2021a]; conditions: ref Loser et al. [2021a]; cited from earlier work
[2] = molecular target: T1, human α4β2 (HS) nAChR (Homo sapiens, UniProt P17787+P43681); test: Two-electrode voltage-clamp recordings, Xenopus laevis oocytes expressing human α4β2 (HS) nAChR; assay type: cell-based
T1 construct: expressed in transfected cells; host or cells: Xenopus laevis oocytes (EcoCyte Bioscience), mRNA injection, 3 ng α4 and 30 ng β2
T1 sequence (P43681 27-627): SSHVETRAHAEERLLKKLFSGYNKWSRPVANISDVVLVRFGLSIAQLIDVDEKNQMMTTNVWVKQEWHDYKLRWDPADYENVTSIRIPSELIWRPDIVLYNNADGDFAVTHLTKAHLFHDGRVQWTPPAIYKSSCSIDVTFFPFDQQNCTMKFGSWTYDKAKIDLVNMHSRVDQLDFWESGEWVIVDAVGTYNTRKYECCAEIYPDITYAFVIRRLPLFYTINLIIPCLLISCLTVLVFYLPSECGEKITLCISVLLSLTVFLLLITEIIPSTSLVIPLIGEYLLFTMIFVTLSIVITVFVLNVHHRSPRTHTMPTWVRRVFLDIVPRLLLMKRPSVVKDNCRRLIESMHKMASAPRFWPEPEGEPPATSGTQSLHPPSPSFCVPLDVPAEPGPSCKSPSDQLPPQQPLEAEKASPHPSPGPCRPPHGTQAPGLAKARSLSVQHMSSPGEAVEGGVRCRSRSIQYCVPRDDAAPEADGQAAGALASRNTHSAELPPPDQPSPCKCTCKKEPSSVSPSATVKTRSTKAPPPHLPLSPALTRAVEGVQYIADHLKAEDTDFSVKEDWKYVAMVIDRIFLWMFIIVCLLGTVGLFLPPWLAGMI
T1 sequence (P17787 26-502): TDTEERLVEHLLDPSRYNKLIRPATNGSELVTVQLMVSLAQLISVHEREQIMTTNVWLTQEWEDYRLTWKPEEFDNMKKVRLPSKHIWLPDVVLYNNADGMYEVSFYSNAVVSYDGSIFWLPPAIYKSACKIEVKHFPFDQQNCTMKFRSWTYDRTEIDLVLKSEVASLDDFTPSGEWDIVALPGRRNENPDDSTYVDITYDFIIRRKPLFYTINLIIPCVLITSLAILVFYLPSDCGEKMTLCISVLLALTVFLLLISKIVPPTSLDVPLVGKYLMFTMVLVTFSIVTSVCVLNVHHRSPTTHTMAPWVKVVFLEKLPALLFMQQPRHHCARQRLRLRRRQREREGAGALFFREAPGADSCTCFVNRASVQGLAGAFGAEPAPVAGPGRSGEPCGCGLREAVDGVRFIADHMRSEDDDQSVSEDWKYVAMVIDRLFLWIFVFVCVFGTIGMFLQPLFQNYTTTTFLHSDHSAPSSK

[3] = molecular target: T2, human α7 nAChR (Homo sapiens, UniProt P36544); test: Two-electrode voltage-clamp recordings, Xenopus laevis oocytes expressing human α7 nAChR; assay type: cell-based; conditions: for inward currents: tested up to 100 µM range
T2 construct: expressed in transfected cells; host or cells: Xenopus laevis oocytes, injection of 30 ng mRNA (pCDNA3.1, T7 transcript)
T2 sequence (P36544 23-502): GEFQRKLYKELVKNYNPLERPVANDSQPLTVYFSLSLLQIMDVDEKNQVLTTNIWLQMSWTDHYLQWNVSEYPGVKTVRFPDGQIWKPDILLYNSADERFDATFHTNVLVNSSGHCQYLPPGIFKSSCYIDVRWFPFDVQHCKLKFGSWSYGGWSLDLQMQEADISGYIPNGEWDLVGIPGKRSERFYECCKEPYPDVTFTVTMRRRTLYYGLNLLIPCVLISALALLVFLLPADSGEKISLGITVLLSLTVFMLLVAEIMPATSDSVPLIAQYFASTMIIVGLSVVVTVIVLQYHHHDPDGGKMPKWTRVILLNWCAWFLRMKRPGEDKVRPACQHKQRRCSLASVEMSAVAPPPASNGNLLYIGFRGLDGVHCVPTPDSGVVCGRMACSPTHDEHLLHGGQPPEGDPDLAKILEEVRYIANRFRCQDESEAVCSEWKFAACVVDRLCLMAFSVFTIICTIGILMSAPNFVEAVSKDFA

[4] = molecular target: T3, human α3β4 nAChR (Homo sapiens, UniProt P30926+P32297); test: Two-electrode voltage-clamp recordings, Xenopus laevis oocytes expressing human α3β4 nAChR; assay type: cell-based
T3 construct: expressed in transfected cells; host or cells: Xenopus laevis oocytes, mRNA injection, 0.33 ng α3 and 3.33 ng β4
T3 sequence (P32297 32-505): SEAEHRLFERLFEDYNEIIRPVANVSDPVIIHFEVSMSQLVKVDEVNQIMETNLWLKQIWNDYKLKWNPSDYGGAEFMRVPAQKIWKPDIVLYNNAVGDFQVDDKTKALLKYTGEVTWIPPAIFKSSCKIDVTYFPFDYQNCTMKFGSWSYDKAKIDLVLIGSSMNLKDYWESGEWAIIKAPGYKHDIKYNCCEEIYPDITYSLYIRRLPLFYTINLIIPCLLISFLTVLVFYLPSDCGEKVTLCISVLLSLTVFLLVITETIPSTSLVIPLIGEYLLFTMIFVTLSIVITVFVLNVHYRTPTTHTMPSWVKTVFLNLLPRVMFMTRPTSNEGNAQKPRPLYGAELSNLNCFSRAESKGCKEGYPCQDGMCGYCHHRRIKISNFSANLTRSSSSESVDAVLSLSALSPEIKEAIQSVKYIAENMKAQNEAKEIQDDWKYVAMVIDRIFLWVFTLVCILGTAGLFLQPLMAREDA
T3 sequence (P30926 22-498): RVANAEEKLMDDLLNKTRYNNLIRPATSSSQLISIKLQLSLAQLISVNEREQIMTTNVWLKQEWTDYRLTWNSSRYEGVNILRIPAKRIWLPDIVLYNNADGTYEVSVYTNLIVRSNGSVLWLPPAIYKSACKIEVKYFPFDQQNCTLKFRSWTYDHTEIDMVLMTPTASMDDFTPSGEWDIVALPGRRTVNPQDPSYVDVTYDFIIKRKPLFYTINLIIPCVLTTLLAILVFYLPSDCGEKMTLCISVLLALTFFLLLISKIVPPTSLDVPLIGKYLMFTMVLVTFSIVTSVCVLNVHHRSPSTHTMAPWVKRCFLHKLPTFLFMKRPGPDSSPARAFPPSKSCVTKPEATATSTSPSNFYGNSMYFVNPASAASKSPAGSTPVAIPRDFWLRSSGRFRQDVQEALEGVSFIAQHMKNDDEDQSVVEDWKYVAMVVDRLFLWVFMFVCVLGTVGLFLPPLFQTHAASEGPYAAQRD

[5] = molecular target: T4, human α4β2 (LS) nAChR (Homo sapiens, UniProt P17787+P43681); test: Two-electrode voltage-clamp recordings, Xenopus laevis oocytes expressing human α4β2 (LS) nAChR; assay type: cell-based; conditions: tested concentration range ≤ 100 µM
T4 construct: expressed in transfected cells; host or cells: Xenopus laevis oocytes, mRNA injection, 10 ng α4 and 1 ng β2
T4 sequence (P43681 27-627): as the sequence (P43681 27-627) above
T4 sequence (P17787 26-502): as the sequence (P17787 26-502) above
Source text: (§1) The human α7 nAChR subunit was cloned in the pCDNA3.1 vector.
(§2) For the generation of the mRNA for injection, the plasmid DNAs of α3, α4, β2, and β4 were linearized with the NotI restriction endonuclease (New England Biolabs) and the plasmid DNA of α7 was linearized with the XbaI restriction endonuclease (New England Biolabs). The mRNAs of α3, α4, β2, and β4 were generated by in vitro transcription using the mMESSAGE mMACHINE SP6 Transcription Kit (Invitrogen). For the generation of α7 mRNA, the mMESSAGE mMACHINE T7 Transcription Kit (Invitrogen) was used. For the separation of the DNA and mRNA, a phenol–chloroform extraction (Chomczynski and Sacchi [2006]) was performed. The mRNA was then obtained by ethanol precipitation from the aqueous phase; for quantification, the BioPhotometer (Eppendorf) was used.
(§3) The recordings of human α7, α3β4, α4β2, and α4β4 nAChRs expressed in Xenopus laevis oocytes (EcoCyte Bioscience) were performed in two-electrode voltage-clamp mode using the Roboocyte2 system and the corresponding software (version 1.4.1; Multi Channel Systems MCS). Prior to the recordings, the oocytes were maintained at 19 °C in modified Barth’s solution containing [mM]: 88 NaCl, 1 KCl, 0.33 Ca(NO3)2, 0.82 MgSO4, 2.4 NaHCO3, 0.41 CaCl2, 5 Tris, 100 U/ml penicillin, 100 µg/ml streptomycin, pH 7.4.
(§4) To express human α7 nAChR, we injected 50 nl of mRNA solution (30 ng mRNA) per oocyte, using the Roboinject and the corresponding software (version 1.2.1; Multi Channel Systems MCS). […]
(§5) The baseline correction of voltage-clamp oocyte recordings was performed with the Roboocyte2 + software (version 1.4.3; Multi Channel Systems MCS, Germany). The maximal current influx and further analysis were executed in scripts written in R. In the antagonist experiments with oocytes, the maximal inward current was determined for the last response of each period (control, three antagonist concentrations, and washout).

[6] = molecular target: T5, human α4β4 nAChR (Homo sapiens, UniProt P30926+P43681); test: Two-electrode voltage-clamp recordings, Xenopus laevis oocytes expressing human α4β4 nAChR; assay type: cell-based; conditions: tested concentration range ≤ 100 µM
T5 construct: expressed in transfected cells; host or cells: Xenopus laevis oocytes, mRNA injection, 3.33 ng α4 and 3.33 ng β4
T5 sequence (P43681 27-627): as the sequence (P43681 27-627) above
T5 sequence (P30926 22-498): as the sequence (P30926 22-498) above
Source text: as §1, §2, §3, §4, §5

[7] = tested on: mice; conditions: ref Chao and Casida [1997], cited from earlier work
[8] = tested on: nAChRs on LUHMES neurons; test: High-throughput Ca2+-imaging of LUHMES neurons (agonist effect); assay type: cell-based, human
Procedure: For Ca^2+-imaging, the cells were pre-differentiated for 48 h in cell culture flasks, detached and plated at a density of 20,000 cells and 30,000 cells per well on 0.1% PEI-coated 384-well and 96-well plates (Greiner Bio-One), respectively, for the Ca^2+-imaging. The cells were further differentiated for another 7 days. 50% of the medium was exchanged every 2–3 days.
(§6) Ca^2+-imaging was performed using HT Functional Drug Screening System FDSS/µCELL (Hamamatsu Photonics) at nominal 37 °C. The FDSS/µCell system enables the indirect recording of changes of [Ca^2+]i via a Ca^2+-sensitive fluorescent dye. The fluorescence signal of a complete 384-well plate is acquired at once with a high-speed and high-sensitivity digital ImagEM X2 EM-CCD camera (Electron Multiplying Charge-Coupled Device, Hamamatsu Photonics), but with limited spatial resolution. Therefore, the software only determines the mean fluorescence signal of each well rather than of individual cells. For compound application, the integrated dispenser head with 384 pipette tips was used, which can add the test compound to all wells simultaneously. Cells were preincubated with Cal-520 AM (AAT Bioquest) at a concentration of 1 µM for 1 h at 37 °C. For recording, the medium was exchanged by a buffer solution containing [mM]: 135 NaCl, 5 KCl, 0.2 MgCl2, 2.5 CaCl2, 10 HEPES, and 10 D-glucose, pH 7.4. Test compound application was executed after obtaining a 1.5 min baseline recording. Where applicable, a second application was executed 4.5 min after the first application. The total recording never exceeded 8 min.
(§7) For the high-throughput Ca^2+-imaging data obtained in LUHMES cells, an offset correction using the FDSS software (version 3.2) was performed. Afterward, the data were exported and further analyzed with scripts written in R (version 3.6.3) (R Core Team [2020]). The concentration–response curves were fitted using a log-logistic model described by Ritz et al. ([2015]), utilizing the R package drc with its function drm() and LL2.2() with the following equation: f(x) = d/[1 + exp(b(log(x) − ẽ))] (Ritz et al. [2015]). The logarithm of the half-maximal effective concentration (logEC50) between 0 and the upper limit (d), which was set to 1, is represented by ẽ, x denotes the concentration, and b stands for the slope parameter (Ritz et al. [2015]). In cases with normalizations to responses induced by other compounds, the function LL2.3() was used with a variable upper limit (d; Ritz et al. [2015]). The same equation was used to determine the half-maximal inhibitory concentration (logIC50). Then the logEC50 and logIC50 values were converted into the pIC50 and pEC50 values, which are the negative logarithms to base 10.

[9] = tested on: nAChRs on LUHMES neurons; test: Desensitization of nAChR agonist-evoked [Ca2+]i responses of LUHMES neurons; assay type: cell-based, human; conditions: pretreatment […], 3 µM nicotine
Procedure: as §6, §7
Fig. 4 Desensitizing effects of DN-IMI and IMI-olefin on nAChRs. LUHMES neurons differentiated in 384-well plates were pretreated with various concentrations of DN-IMI or IMI-olefin for 4.5 min before different nAChR agonists were applied and [Ca^2+]i signals were recorded. […] Note the treatment scheme (upper right corner), illustrating the experimental design. […] Note the treatment scheme (upper right corner), illustrating the experimental design. Detailed data on n numbers are found in Table S6

[10] = tested on: nAChRs on LUHMES neurons; test: Inhibition of DN-IMI-evoked [Ca2+]i responses of LUHMES neurons by nAChR antagonists; assay type: cell-based, human; conditions: for pIC50 for inhibition of DN-IMI-induced [Ca2+]i response: antagonist pretreatment, DN-IMI 0.5 µM
Procedure: as §6, §7
LUHMES neurons differentiated in 384-well plates were pretreated with various concentrations of nAChR antagonists before DN-IMI (0.5 µM) was applied in Ca^2+-imaging experiments. […] Note the treatment scheme (upper right corner), illustrating the experimental design. […] Detailed data on n numbers are found in Table S6

[11] = tested on: nAChRs on SH-SY5Y cells; test: Inhibition of DN-IMI-evoked [Ca2+]i response of SH-SY5Y cells by mecamylamine; assay type: cell-based, human; conditions: Mec 125 µM, presence of PNU (10 µM)
[12] = tested on: human α3β2 nAChRs; design: method as in Chavez-Noriega et al. [2000]; conditions: ref Chavez-Noriega et al. [2000]; cited from earlier work
[13] = in vitro; conditions: human, hepatocytes
Source text: Renal clearance for DN-IMI was assumed to be governed only by passive processes, with both filtration and passive reabsorption being accounted for. Passive permeability was scaled from the predicted permeability in the intestine (Peff 0.37 10-4 cm/s) accounting for the surface area of the proximal tubules in the kidney.

[14] = from curve-fitted concentration–response data

CC(=O)OCC[N+](C)(C)C [ACh, Acetylcholine chloride]
pEC50 in LUHMES neurons [1]: ~ 6.0

O=[N+]([O-])NC1=NCCN1Cc1ccc(Cl)nc1 [IMI, imidacloprid]
activation of the receptor ([2]; tested concentration range ≤ 100 µM): did not trigger a concentration-dependent activation | inward currents [3]: significant inward currents but with a lower potency and efficacy than DN-IMI | inward currents ([4]; concentration-dependent, up to 100 µM): small but significant inward currents | activation of the receptor [5]: did not trigger a concentration-dependent activation | activation of the receptor [6]: did not trigger a concentration-dependent activation | LD50 ([7]; Tomizawa et al. [2000], [2001]): 35 to 50 mg/kg

O=[N+]([O-])Nc1nccn1Cc1ccc(Cl)nc1 [IMI-olefin, imidacloprid-olefin]
pEC50 of [Ca2+]i response (peak amplitude) ([8]; LUHMES neurons, absence of PNU, normalized to the maximal response stimulated by DN-IMI, tested ≤ 100 µM): not reached within the measurement range | pEC50 of [Ca2+]i response in the presence of PNU ([8]; PNU 10 µM, normalized to maximal response to IMI-olefin in presence of PNU): 5.5 | response as % of the maximal response to DN-IMI ([8]; at 30–100 µM): around 15% | pIC50 for desensitization of the nicotine-evoked response [9]: 4.9 | inward currents [3]: significant inward currents but with a lower potency and efficacy than DN-IMI | lethality ([7]; highest tested dose of 50 mg/kg): no lethality

CC[N+](CC)(CC)CCOc1ccc(/C=C/c2ccccc2)cc1 [MG 624]
pIC50 for inhibition of DN-IMI-induced [Ca2+]i response [10]: 6.8 ± 0.03

CCN1C[C@]2(COC(=O)c3ccccc3N3C(=O)C[C@H](C)C3=O)CC[C@H](OC)[C@@]34[C@@H]5C[C@H]6[C@H](OC)[C@@H]5[C@](O)(C[C@@H]6OC)[C@@](O)([C@@H](OC)[C@H]23)[C@@H]14 [MLA, Methyllycaconitine, reference compound]
pIC50 for inhibition of DN-IMI-induced [Ca2+]i response [10]: 6.8 ± 0.03 | block of DN-IMI-triggered inward current ([3]; DN-IMI 30 µM): concentration-dependently and reversibly blocked

CNC1(C)C2CCC(C2)C1(C)C (stereo not shown) [Mec, Mecamylamine]
pIC50 for inhibition of DN-IMI-induced [Ca2+]i response [10]: 6.8 ± 0.03 | block of DN-IMI-triggered inward current ([2]; DN-IMI 1 µM): concentration-dependently and reversibly blocked | block of DN-IMI-induced [Ca2+]i response in SH-SY5Y [11]: strongly blocked | pIC50, literature data for human α3β2 nAChRs [12]: 6.6

COc1cc2c3cc1Oc1cc(ccc1O)C[C@@H]1c4c(cc(OC)c(O)c4Oc4ccc(cc4)C[C@@H]3N(C)CC2)CC[N+]1(C)C [Tubo, (+)-Tubocurarine chloride pentahydrate]
pIC50 for inhibition of DN-IMI-induced [Ca2+]i response [10]: 5.9 | block of DN-IMI-evoked response ([10]; at 100 µM): completely blocked | block of DN-IMI-triggered inward current ([4]; DN-IMI 30 µM): concentration-dependently and reversibly blocked

CN1CCC[C@H]1c1cccnc1 [nicotine, (-)-Nicotine, reference compound]
higher potency on α4β2 (HS) nAChR than on other subtypes ([2]; comparison of EC25 values, α4β2 (HS) vs α7 and α3β4): > 2 log-step | absolute EC25 [2, 14]: 0.17 µM | absolute EC25 [3, 14]: 30.2 µM | estimated maximum ([3]; normalized to nicotine (1 mM)): ~ 1 | absolute EC25 [4, 14]: 27.5 µM | estimated maximum ([4]; normalized to nicotine (1 mM)): ~ 1 | pEC50 in LUHMES neurons [1]: ~ 6.0

C[C@]12C=CC(=O)C=C1CC[C@@H]1[C@@H]2[C@@H](O)C[C@@]2(C)[C@H]1CC[C@]2(O)C(=O)CO [prednisolone, reference compound]
hepatocyte CLint [13]: 379 µL/min/1e6 cells
